Measurements as given in patent US20210198277A1, “AMINE-SUBSTITUTED ARYL OR HETEROARYL COMPOUNDS” (Epizyme, Inc., priority 2016, published 2021).

Biological target: T1, human EHMT2 913-1193 (Homo sapiens, UniProt Q96KQ7)
T1 construct: recombinant purified human EHMT2 913-1193, Viva; purchased Viva
T1 sequence (Q96KQ7 913-1193): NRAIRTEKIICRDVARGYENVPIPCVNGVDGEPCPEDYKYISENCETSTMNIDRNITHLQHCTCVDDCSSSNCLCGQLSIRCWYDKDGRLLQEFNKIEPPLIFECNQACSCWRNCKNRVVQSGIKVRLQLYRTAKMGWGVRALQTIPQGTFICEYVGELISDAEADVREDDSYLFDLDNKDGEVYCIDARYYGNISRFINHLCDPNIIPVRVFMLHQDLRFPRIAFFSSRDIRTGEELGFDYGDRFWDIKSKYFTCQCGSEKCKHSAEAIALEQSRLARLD
Assay: EHMT2 enzyme assay on histone peptide substrate (EHMT2 PEP)
Assay type: biochemical
Conditions: Table VI; read-out: EHMT2 PEP IC50
How it was run: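 Radiometric methyltransferase read-out: ^3H-methyl transfer from ^3H-SAM onto biotinylated histone peptide, captured on streptavidin Flashplates after 60 min reaction at room temperature. Enzyme 0.031 nM, preincubated 30 min with inhibitor; buffer 20 mM Bicine pH 7.5 with 1 mM TCEP; top compound concentration 50 μM final, 2% DMSO.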

Compound | IC50 [nM]
CNc1cc(C)nc(Nc2ccc(OC)c(OCC(O)CN3CCCC3)c2)n1 (stereo in doubt) [Compound 906, (2S)-1-(2-methoxy-5-[[4-methyl-6-(methylamino)pyrimidin-2-yl]amino]phenoxy)-3-(pyrrolidin-1-yl)propan-2-ol] | < 100
COc1cnc(Nc2cccc3[nH]nnc23)cc1OCCCN1CCCC1 [Compound 619] | > 10000
CCN1CC(COc2cc(Nc3cccn4cnnc34)ncc2OC)C1 [Compound 620] | > 10000
CNc1cc(C)nc(Nc2c[nH]c(=O)c(OCCCN3CCCC3)c2)n1 [Compound 621] | > 10000
CNc1cc(C)nc(Nc2cc(OCCCN3CCCC3)c3nncn3c2)n1 [Compound 622] | 1000 to 10000
CNc1cc(C)nc(Nc2cc(OCCCN3CCCC3)c3ncnn3c2)n1 [Compound 623] | 1000 to 10000
CNc1cc(C)nc(Nc2cc(OCCCN3CCCC3)c3[nH]nnc3c2)n1 [Compound 624] | 100 to 1000
COc1cc2c(C3CCN(C)CC3)cc(N3CCCC3)nc2cc1OCCCN1CCCC1 [Compound 625] | < 100
COc1cc2c(C3CCN([C@H]4CCOC4)CC3)cc(C)nc2cc1OCCCN1CCCC1 [Compound 864] | < 100
CCNc1cc(C2CCOCC2)c2cc(OC)c(OCCCN3CCCC3)cc2n1 [Compound 865] | < 100
CNc1cc(C2CCN([C@@H]3CCOC3)CC2)c2cc(OC)c(OCCCN3CCCC3)cc2n1 [Compound 866] | < 100
CNc1cc(C2CCN([C@H]3CCOC3)CC2)c2cc(OC)c(OCCCN3CCCC3)cc2n1 [Compound 867] | < 100
COc1ccc(Nc2nc(C)cc(C3CCOCC3)n2)cc1OCCCN1CCCC1 [Compound 870] | > 10000
CNc1cc(C)nc(Nc2ccc(OC)c(C(=O)NCc3ccccc3)c2)n1 [Compound 871] | > 10000
CNc1cc(C)nc(Nc2ccc(OC)c(C(=O)NC3CCN(C)CC3)c2)n1 [Compound 873] | > 10000
CNc1cc(C)nc(Nc2ccc(CNC(=O)c3ccccc3)c(OC)c2)n1 [Compound 876] | > 10000
CNc1cc(C)nc(Nc2ccc(C(=O)NCc3ccccc3)c(OC)c2)n1 [Compound 877] | > 10000
CNc1cc(C)nc(Nc2cnc(OC)c(OC[C@@H](O)CN3CCCC3)c2)n1 [Compound 881] | 100 to 1000
CNc1cc(C)nc(Nc2cnc(OC)c(OC[C@H](O)CN3CCCC3)c2)n1 [Compound 882] | 100 to 1000
COc1ncc(Nc2nc(C)cc(NCC3COC3)n2)cc1OC[C@@H](O)CN1CCCC1 [Compound 883] | > 10000
COc1ncc(Nc2nc(C)cc(NCC3COC3)n2)cc1OC[C@H](O)CN1CCCC1 [Compound 884] | > 10000
CNc1cc(C)nc(Nc2cc(OC[C@@H](O)CN3CCCC3)c(OC)cn2)n1 [Compound 885] | 1000 to 10000
CNc1cc(C)nc(Nc2cc(OC[C@H](O)CN3CCCC3)c(OC)cn2)n1 [Compound 886] | 1000 to 10000
CNC(=O)CCNc1cc(C)nc(Nc2cnc(OC)c(OCCCN3CCCC3)c2)n1 [Compound 887] | 100 to 1000
CNC(=O)N1CC(CNc2cc(C)nc(Nc3cnc(OC)c(OCCCN4CCCC4)c3)n2)C1 [Compound 888] | 100 to 1000
CNc1cc(C)nc(Nc2ccc(OC)c(OCCCc3nc(Cl)c[nH]3)c2)n1 [Compound 890] | > 10000
CNc1cc(C)nc(Nc2ccc(OC)c(OCCCc3nc(Cl)cn3C)c2)n1 [Compound 891] | > 10000

Compound | IC50 [nM]
CNS(=O)(=O)CCNc1cc(C)nc(Nc2ccc(OC)c(OCCCN3CCCC3)c2)n1 [Compound 892] | < 100
COc1ccc(Nc2nc(C)cc(NCCS(=O)(=O)N(C)C)n2)cc1OCCCN1CCCC1 [Compound 893] | 100 to 1000
COc1cnc(Nc2cc(NCC3COC3)cnn2)cc1OCCCN1CCCC1 [Compound 894] | 100 to 1000
COc1cc2cc(C#N)c(C)nc2cc1OCCCN1CCCC1 [Compound 895] | > 10000
COc1cc2cc(F)c(C)nc2cc1OCCCN1CCCC1 [Compound 896] | > 10000
CNc1nc2cc(OCCCN3CCCC3)c(OC)cc2cc1F [Compound 897] | > 10000
CNC(=O)C1CCN(c2cc3nc(NC)cc(C)c3cc2OC)C1 (centres unmarked) [Compound 900] | > 10000
CNc1cc(C2CCOCC2)c2cc(OC)c(OCCCN3CC(O)C3)cc2n1 [Compound 902] | < 100
CNc1nc2cc(OCCCN3CCCC3)c(OC)cc2cc1Cl [Compound 903] | 1000 to 10000
CNc1cc(C)nc(Nc2ccc(OC)c(C#CCN3CCOCC3)c2)n1 [Compound 904] | > 10000
CNc1cc(C)nc(Nc2ccc(OC)c(OC[C@@H](O)CN3CCCC3)c2)n1 [Compound 905] | 100 to 1000
CNc1ccnc(Nc2ccc(OC)c(OC[C@@H](O)CN3CCC3)c2)n1 [Compound 907] | 1000 to 10000
CNc1ccnc(Nc2ccc(OC)c(OC[C@H](O)CN3CCC3)c2)n1 [Compound 908] | < 100
CNc1ccnc(Nc2cnc(OC)c(OC[C@@H]3CCN(C)C3)c2)n1 [Compound 912] | 100 to 1000
CNc1ccnc(Nc2cnc(OC)c(OCCCN3CCC3)c2)n1 [Compound 914] | 100 to 1000
CNCCCOc1cc(Nc2nccc(NC)n2)ccc1OC [Compound 916] | 100 to 1000
CNCCCOc1cc(Nc2nccc(NC)n2)cnc1OC [Compound 917] | 1000 to 10000
CNC[C@@H](O)COc1cc(Nc2nccc(NC)n2)cnc1OC [Compound 918] | 1000 to 10000
CNc1ccnc(Nc2ccc(OC)c(OC[C@@H](CN3CCCC3)OC)c2)n1 [Compound 919] | 1000 to 10000
CNc1ccnc(Nc2ccc(OC)c(OC[C@H](CN3CCCC3)OC)c2)n1 [Compound 920] | 100 to 1000
CNC[C@H](COc1cc(Nc2nccc(NC)n2)ccc1OC)OC [Compound 921] | > 10000
CNC[C@@H](COc1cc(Nc2nccc(NC)n2)ccc1OC)OC [Compound 922] | 1000 to 10000
CCN1CC[C@@H](COc2cc(Nc3nccc(NC)n3)ccc2OC)C1 [Compound 927] | 100 to 1000
CNc1ccnc(Nc2ccc(OC)c(OC[C@@H]3CCN(C4CC4)C3)c2)n1 [Compound 928] | 100 to 1000
CNc1ccnc(Nc2ccc(OC)c(OC[C@H]3CN(C)CCO3)c2)n1 [Compound 931] | > 10000
CCN1CCO[C@@H](COc2cc(Nc3nccc(NC)n3)ccc2OC)C1 [Compound 932] | > 10000
CNc1ccnc(Nc2ccc(OC)c(OC[C@H]3CNCCO3)c2)n1 [Compound 933] | > 10000

Compound | IC50 [nM]
CNc1ccnc(Nc2ccc(OC)c(OC[C@@H]3CN(C)CCO3)c2)n1 [Compound 936] | > 10000
CCN1CCO[C@H](COc2cc(Nc3nccc(NC)n3)ccc2OC)C1 [Compound 937] | > 10000
CNc1ccnc(Nc2ccc(OC)c(OC[C@@H]3CNCCO3)c2)n1 [Compound 938] | > 10000
CNc1ccnc(Nc2ccc(OC)c(OC[C@@H](C)CN3CCC3)c2)n1 [Compound 943] | 1000 to 10000
CNc1ccnc(Nc2ccc(OC)c(OC[C@H](C)CN3CCC3)c2)n1 [Compound 945] | 100 to 1000
CCN1CC[C@@H](COc2cc(Nc3nc(C)cc4[nH]ncc34)ncc2OC)C1 [Compound 947] | < 100
CNc1cc(C)nc(Nc2cnc(OC)c(OCCCN3CCC3)c2)n1 [Compound 949] | 100 to 1000
COc1cc2c(C3CCN(C)CC3)nc(N3CCCC3)nc2cc1OCCCN1CC(O)C1 [Compound 950] | 100 to 1000
CCN1CC(COc2cc3nc(NC)nc(C4CCN(C)CC4)c3cc2OC)C1 [Compound 951] | 100 to 1000
CNc1nc(C2=CC(C)(C)NC(C)(C)C2)c2cc(OC)c(OCCCN3CCCC3)cc2n1 [Compound 961] | 1000 to 10000
CNc1cc(C)nc(Nc2ccc(OC)c(OC[C@H](O)CNC3CCC3)c2)n1 [Compound 962] | 100 to 1000
CNc1cc(C)nc(Nc2cnc(OC)c(OC[C@H](O)CN3CCC3)c2)n1 [Compound 963] | < 100
CNCCNCc1cc(Nc2nc(C)cc(NC)n2)ccc1OC [Compound 964] | 100 to 1000
CNc1cc(C)nc(Nc2ccc(OC)c(CNCCN3CCC3)c2)n1 [Compound 965] | < 100
CNc1ccnc(Nc2cnc(OC)c(OC[C@@H]3CCN(C4CCC4)C3)n2)n1 [Compound 974] | 100 to 1000
CNc1cc(C)nc(Nc2ccc(OC)c(OC[C@H](O)CN3CC(C)C3)c2)n1 [Compound 985] | 100 to 1000
CNc1cc(C)nc(Nc2ccc(OC)c(OC[C@H](O)CN3CC(F)C3)c2)n1 [Compound 986] | 100 to 1000
CNc1cc(C)nc(Nc2ccc(OC)c(CNCCN(C)C)c2)n1 [Compound 990] | < 100
CNc1ccnc(Nc2ccc(OC)c(OCC(C)(O)CN3CCC3)c2)n1 (centres unmarked) [Compound 1005] | 1000 to 10000
CCN1CCC(O)(COc2cc(Nc3nccc(NC)n3)ccc2OC)C1 (centres unmarked) [Compound 1006] | 100 to 1000
CCN1CCC(O)(COc2cc(Nc3nccc(NC)n3)ccc2OC)C1 (centres unmarked) [Compound 1007] | > 10000
CNc1ccnc(Nc2ccc(OC)c(OCC(C)CN3CCC3)c2)n1 (centres unmarked) [Compound 1008] | 100 to 1000
CNCC(C)COc1cc(Nc2nccc(NC)n2)ccc1OC (centres unmarked) [Compound 1009] | 1000 to 10000
CNCCC(C)Oc1cc(Nc2nccc(NC)n2)ccc1OC (centres unmarked) [Compound 1011] | 1000 to 10000
CNc1ccnc(Nc2ccc(OC)c(OCCC(C)N3CCC3)c2)n1 (centres unmarked) [Compound 1014] | 1000 to 10000
CNc1ccnc(Nc2ccc(OC)c(OCCC(C)NC)c2)n1 (centres unmarked) [Compound 1016] | 1000 to 10000
